Assay [1] deals with G-protein-coupled receptor promoting fungal in planta expansion 1 (Gpe1) (Ustilago maydis).
Assay [2] deals with UmGpe1 (Gpe1, UMAG_01374). Put plainly: GPCR activation assay in S. cerevisiae (yEmRFP reporter under FUS1 promoter), added protein/peptides. Format: cell-based, Ustilago maydis.
Description: To enable ligand identification, Gpe1 was then expressed in an engineered Saccharomyces cerevisiae strain to test receptor activation through production of a fluorescent reporter[22]. This strain is devoid of both endogenous mating GPCR genes (STE2 and STE3), all pheromone genes (MFA1/2 and MFALPHA1/MFALPHA2), BAR1, SST2 and FAR1[22]. And carries an unmodified version of ScGPA1, which is the homolog of U. maydis Gpa1[23]. The coupling of ScGPA1 with Gpe1, and later MAPK pathway activation, lead to the induction of a red fluorescent protein (yEmRFP) under control of the FUS1 promoter serves as readout.
The activation assays for each GPCR were performed as previously described with slight modifications[22]. […] Experiments were performed in 96-well microtiter plates using a microplate reader (Tecan), and OD600 and red fluorescence were measured after 8 h. Experiments were run in triplicate.
The mixture of tryptic-digested UmPit2 peptides were subjected to separation with a binary gradient of from 5 % to 95 % acetonitrile with a flowrate of 2 mL/min on an HPLC system (Agilent) for 60 min operated in a C-18 reverse phase column. The injection point was after 2 min and while the separation process was running, 2 mL sample was collected until fraction number 50. […]
A further assay has as its target T1, wild-type Gpe1 (Mycosarcoma maydis, UniProt A0A0D1E6B3).
T1 construct: expressed in transfected cells; host or cells: Saccharomyces cerevisiae JTy014-derived reporter strain, plasmid pIL0186 (pRS416 backbone)
T1 sequence (A0A0D1E6B3 1-435): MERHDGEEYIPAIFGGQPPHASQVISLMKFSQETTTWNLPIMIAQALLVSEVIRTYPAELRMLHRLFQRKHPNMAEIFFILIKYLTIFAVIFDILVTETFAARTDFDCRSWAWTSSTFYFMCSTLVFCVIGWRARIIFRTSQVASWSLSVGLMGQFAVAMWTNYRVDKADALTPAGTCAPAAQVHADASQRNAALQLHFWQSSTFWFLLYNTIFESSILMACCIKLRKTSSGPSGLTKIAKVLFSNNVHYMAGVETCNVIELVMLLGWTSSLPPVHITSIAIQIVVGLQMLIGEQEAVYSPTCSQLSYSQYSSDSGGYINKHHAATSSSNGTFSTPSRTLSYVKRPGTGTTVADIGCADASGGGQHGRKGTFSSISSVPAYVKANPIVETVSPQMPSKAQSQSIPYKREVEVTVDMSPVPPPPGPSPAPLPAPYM
Description: Dose-response of synthetic peptide in yeast reporter assay, wild-type Gpe1. Format: cell-based, Ustilago maydis. As to conditions: for EC50: 9 concentrations up to 15 µM, fluorescence after 20 h, four-parameter fit, Fig. 2b/2d, mean of three independent biological experiments. As for the experimental part: Experiments were performed in 96-well microtiter plates using a microplate reader (Tecan), and OD600 and red fluorescence were measured after 20 h. A four-parameter non-linear regression model (curve fit) was used using Prism (GraphPad 5): Agonist concentration vs. response (variable slope). After analysis, EC50, basal activation, maximal activation and the Hill coefficient was extracted as previously described.
Background: In a reporter assay the amount or activity of a reporter protein is the signal.

The next assay concerns the target T2, Gpe1R133A (Mycosarcoma maydis, UniProt A0A0D1E6B3, R133A).
T2 construct: expressed in transfected cells; host or cells: Saccharomyces cerevisiae reporter strain, plasmid pIL0373 (made from pIL0186)
T2 sequence (A0A0D1E6B3 1-435 R133A): T1 sequence (A0A0D1E6B3 1-435) with R133A
Description: Dose-response in yeast reporter assay, Gpe1 R133A. It counts as cell-based, Ustilago maydis. As to conditions: Fig. 4e; receptor variant R133A. As for the experimental part: (§1) To test the functional relevance of this putative TM3–TM6 activation module, we generated Gpe1 variants targeting R133 and the adjacent TM6 residues N246 and N247 (Supplementary Fig. 5). Gpe1 variant activation was analyzed by the yeast reporter system. […] However, reduced activity of individual variants may also reflect effects on receptor stability or intracellular trafficking competence.
(§2) For the plasmid constructions, standard molecular cloning strategies and techniques were applied. For GPCR expression in S. cerevisiae, the ScSte2 expression vector pRS416[22] was digested with SpeI and XhoI to remove the ScSte2 gene. The pure backbone vector was used for classical restriction-ligation (T4 ligase) to clone the GPCR genes inside using unique restriction sites (SpeI and XhoI) added in the PCR gene amplification. For plasmid amplification, recombinant plasmids were transformed in chemically competent E. coli Top10 cells. […]
(§3) For dose response curves, 9 different concentrations (15 μM and […] five-fold dilutions starting at 8 μM peptide, sterile water was used as no peptide control) of the specific synthetic peptide were used. Experiments were performed in 96-well microtiter plates using a microplate reader (Tecan), and OD600 and red fluorescence were measured after 20 h. […]

The next assay has as its target T3, Gpe1N246L+N247L (Mycosarcoma maydis, UniProt A0A0D1E6B3, N246L/N247L).
T3 construct: expressed in transfected cells; host or cells: Saccharomyces cerevisiae reporter strain, plasmid pIL0350 (made from pIL0186)
T3 sequence (A0A0D1E6B3 1-435 N246L/N247L): T1 sequence (A0A0D1E6B3 1-435) with N246L, N247L
Description: Dose-response in yeast reporter assay, Gpe1 N246L+N247L. Format: cell-based, Ustilago maydis. Particulars: Fig. 4e; receptor variant N246L+N247L. Here is the method:
as §1, §2, §3

A further assay has as its target T4, Gpe1N246D+N247G (Mycosarcoma maydis, UniProt A0A0D1E6B3, N246D/N247G).
T4 construct: expressed in transfected cells; host or cells: Saccharomyces cerevisiae reporter strain, plasmid pIL0351 (made from pIL0186)
T4 sequence (A0A0D1E6B3 1-435 N246D/N247G): T1 sequence (A0A0D1E6B3 1-435) with N246D, N247G
Put plainly: Dose-response in yeast reporter assay, Gpe1 N246D+N247G. It counts as cell-based, Ustilago maydis. Particulars: Fig. 4e; receptor variant N246D+N247G; read-out: apparent EC50. As for the experimental part: as §1, §2, §3

In the next assay the test system is S. cerevisiae Ste2. Put plainly: GPCR activation assay in S. cerevisiae, positive control. It counts as cell-based, Saccharomyces cerevisiae. As to conditions: 10 µM α-factor, full agonist positive control; set to 100 %. The source says: Three extra- and intracellular loops connect the TMs, with the N-terminal 35 residues and the 38 residues of the second extracellular loop (ECL2) forming an extracellular extension (Fig. 1b). ECL2 is also predicted to be connected to TM3 via a disulfide bond formed by Cys178 and Cys108 (Fig. 1b), a hallmark of many rhodopsin-class GPCRs[21]. To enable ligand identification, Gpe1 was then expressed in an engineered Saccharomyces cerevisiae strain to test receptor activation through production of a fluorescent reporter. This strain is devoid of both endogenous mating GPCR genes (STE2 and STE3), all pheromone genes (MFA1/2 and MFALPHA1/MFALPHA2), BAR1, SST2 and FAR1[22]. And carries an unmodified version of ScGPA1, which is the homolog of U. maydis Gpa1[23]. The coupling of ScGPA1 with Gpe1, and later MAPK pathway activation, lead to the induction of a red fluorescent protein (yEmRFP) under control of the FUS1 promoter serves as readout. Western blot analysis confirmed expression of Gpe1 in S. cerevisiae (Supplementary Fig.1b).
The activation assays for each GPCR were performed as previously described with slight modifications. […] Experiments were performed in 96-well microtiter plates using a microplate reader (Tecan), and OD600 and red fluorescence were measured after 8 h. Experiments were run in triplicate.

These results are taken from publication PMC13652807, “A co-evolved peptide-GPCR system senses host entry to drive fungal infection” (Nature Communications, 2026).

Positions count from the first letter of the chain named. Where a SMILES comes first, the peptide text is derived from it. A value given as a limit tells only on which side of the number the result lay.

Pit2.5-G07L (peptide) gave an EC50 of the yEmRFP reporter in S. cerevisiae, dose response with synthetic peptide; maximum fluorescence reduced in assay [1] of 23 nM.
For “Pit2: purified recombinant U. maydis effector protein Pit2 (UMAG_01375) lacking its signal peptide”, the “Gpe1 activation level, fluorescence normalized to the Ste2 activation being 100 %” value in assay [2] (100 µM purified full-length Pit2 lacking signal peptide, red fluorescence after 8 h, mean of three independent biological experiments) is given as ~ 25%.
In the case of SrPit2 peptide, the activation level (% activity) in the S. cerevisiae biosensor assay with UhGpe1 (Ustilago hordei) was found to be 45%.
WWFGFTGSLGK: the “Identification as Gpe1 agonist” value in assay [2] (peptide fractionation of tryptic Pit2 digest and mass spectrometry) is “Gpe1 agonist”.
For orientation: EC50 means the concentration that produces a half-maximal response. With `CC(C)C[C@H](NC(=O)[C@H](CO)NC(=O)CNC(=O)[C@@H](NC(=O)[C@H](Cc1ccccc1)NC(=O)CNC(=O)[C@H](Cc1ccccc1)NC(=O)[C@H](Cc1c[nH]c2ccccc12)NC(=O)[C@@H](N)Cc1c[nH]c2ccccc12)[C@@H](C)O)C(=O)O` [Pit2.5] (H-WWFGFTGSL-OH), the EC50 at wild-type Gpe1 was 80 nM; on Gpe1R133A, more than 15000 nM; on Gpe1N246L+N247L, more than 15000 nM; at Gpe1N246D+N247G, 400 nM.
As to AWFGFTGSL [pit2.13], the “Receptor activation in dose-response (in words)” value at wild-type Gpe1 (Fig. 2d) was “abolished receptor activation”.
Consider `CC(C)C[C@H](NC(=O)[C@H](CO)NC(=O)[C@H](CC(C)C)NC(=O)[C@@H](NC(=O)[C@H](Cc1ccccc1)NC(=O)CNC(=O)[C@H](Cc1ccccc1)NC(=O)[C@H](Cc1c[nH]c2ccccc12)NC(=O)[C@@H](N)Cc1c[nH]c2ccccc12)[C@@H](C)O)C(=O)O` [pit2.17] (H-WWFGFTLSL-OH), for which, at wild-type Gpe1, a half-maximal effect (EC50) was put at 23 nM.
For the compound α-factor, in the assay with S. cerevisiae Ste2, the “Ste2 activation, fluorescence level (normalization reference)” value came to 100%.
The compound Pit2.5 (…) (peptide) registered an activation level (% activity) in the S. cerevisiae biosensor assay with UhGpe1 (Ustilago hordei) of 30%. In assay [1], this compound showed an EC50 of the yEmRFP reporter in S. cerevisiae, dose response with synthetic peptide of 80 nM.
